For eleven compounds, Ki results are on record in patent publication US20220064170A1, “BICYCLIC HETEROCYCLIC DERIVATIVES AND THEIR USE AS PHARMACEUTICALS” (Prelude Therapeutics, Incorporated, priority 2018, published 2022).

For this assay, the target named is T1, MCL-1 (Homo sapiens, UniProt Q07820).
T1 construct: purchased BPS Bioscience
T1 sequence (Q07820 whole entry): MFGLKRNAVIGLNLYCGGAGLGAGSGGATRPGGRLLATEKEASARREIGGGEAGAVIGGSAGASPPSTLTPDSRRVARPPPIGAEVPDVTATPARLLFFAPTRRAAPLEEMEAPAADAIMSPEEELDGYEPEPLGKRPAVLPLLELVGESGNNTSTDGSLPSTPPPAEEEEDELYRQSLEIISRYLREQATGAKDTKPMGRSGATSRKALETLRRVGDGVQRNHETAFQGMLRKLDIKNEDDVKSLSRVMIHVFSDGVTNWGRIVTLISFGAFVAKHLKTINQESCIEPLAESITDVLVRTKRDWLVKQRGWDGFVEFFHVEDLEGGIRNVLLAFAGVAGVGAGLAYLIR
The assay can be described thus: Cell Free Mcl-1:Bim affinity assay (Mcl-1 Bim), fluorescence polarization competition. Type of assay: binding. The conditions noted are these: 15 nM MCL-1, 5 nM FITC-Bim peptide tracer, 1 hour at room temperature; Ki calculated from IC50 by Nikolovska-Coleska's equation; read-out: BIM_Ki. Here is the method:
The binding affinity of each compounds was measured via fluorescence polarization competition assay, in which the compound competes the same binding site with the ligand, and thus lead to dose-dependent anisotropy reduction. The tracer ligand utilized was a fluorescein isothiocyanate labelled peptide (FITC-[…]) derived from Bim (GenScript).
The assay was carried out in black half-area 96-well NBS plate (Corning), containing 15 nM of MCL-1 (BPS Bioscience), 5 nM of FITC-Bim and 3-fold series diluted test compounds in a total volume of 50 uL of assay buffer (20 mM HEPES, 50 mM NaCl, 0.002% Tween 20 1 mM TCEP and 1% DMSO). The reaction plate was incubated for 1 hour at room temperature. The change of anisotropy is measured by Envision multimode plate reader (PerkinElmer) at emission wavelength 535 nm. Fluorescence polarization was calculated in mP unit and the percentage inhibition was calc. by % inhibition=100×(mPDMSO−mP)/(mPDMSO−mPPC), in which mPDMSO is the DMSO control, and mPPC is the positive control. IC50 values were determined from a 10-point dose response curve by fitting the percent inhibition against compound concentration using the GraphPad Prism software. The inhibition constant Ki was subsequently calculated according Nikolovska-Coleska's equation (Anal. Biochem., 2004, 332, 261),
Where [I]50 is the concentration of the free inhibitor at 50% inhibition, [L]50 is the concentration of the free labeled ligand at 50% inhibition, [P]0 is the concentration of the free protein at 0% inhibition, and Kd is the dissociation constant of the protein-ligand complex.
Turning to `Cc1c(-c2c(-c3ccc(F)cc3)cn3ncnc(O[C@H](Cc4ccccc4OCC4CC4)C(=O)O)c23)ccc(OCCN2CCN(C)CC2)c1Cl` (atropisomer, axis not shown; (Ra)) [Example 4, (2R)-2-[(5Ra)-5-[3-Chloro-2-methyl-4-[2-(4-methylpiperazin-1-yl)ethoxy]phenyl]-6-(4-fluoro-phenyl)pyrrolo[2,1-f][1,2,4]triazin-4-yl]oxy-3-[2-(cyclopropylmethoxy)phenyl]propanoic acid], the Ki is 11.3 nM.

For `Cc1c(-c2c(-c3ccc(F)cc3)cn3ncnc(N[C@H](Cc4ccccc4OCC4CC4)C(=O)O)c23)ccc(OCCN2CCN(C)CC2)c1Cl` (single isomer, unassigned) [Example 7], the Ki was 77.7 nM.

Regarding `Cc1c(-c2c(-c3ccc(F)cc3)cn3ncnc(O[C@@H](Cc4ccccc4OCC4CC4)C(=O)O)c23)ccc(OCCN2CCN(C)CC2)c1Cl` (atropisomer, axis not shown; (Sa)) [Example 3, (2S)-2-[(5Sa)-5-[3-Chloro-2-methyl-4-[2-(4-methylpiperazin-1-yl)ethoxy]phenyl]-6-(4-fluoro-phenyl)pyrrolo[2,1-f][1,2,4]triazin-4-yl]oxy-3-[2-(cyclopropylmethoxy)phenyl]propanoic acid], the Ki was more than 12000 nM.

In the case of `Cc1c(-c2c(-c3ccc(F)cc3)cn3ncnc(O[C@H](Cc4ccccc4OCC4CC4)C(=O)O)c23)ccc(OCCN2CCN(C)CC2)c1Cl` (atropisomer, axis not shown; (Sa)) [Example 1, (2R)-2-[(5Sa)-5-[3-Chloro-2-methyl-4-[2-(4-methylpiperazin-1-yl)ethoxy]phenyl]-6-(4-fluoro-phenyl)pyrrolo[2,1-f][1,2,4]triazin-4-yl]oxy-3-[2-(cyclopropylmethoxy)phenyl]propanoic acid], the Ki was 205 nM.

Turning to `COc1ccccc1-c1nccc(COc2ccccc2C[C@@H](Nc2ncnn3cc(-c4ccc(F)cc4)c(-c4ccc(OCCN5CCN(C)CC5)c(Cl)c4C)c23)C(=O)O)n1` (atropisomer, axis not shown; (Ra)) [Example 13, (2R)-2-{[(5Ra)-5-{3-Chloro-2-methyl-4-[2-(4-methylpiperazin-1-yl)ethoxy]phenyl}-6-(4-fluorophenyl)pyrrolo[2,1-f][1,2,4]triazin-4-yl]amino}-3-(2-{[2-(2-methoxyphenyl)pyrimidin-4-yl]methoxy}phenyl)propanoic acid], the Ki was 0.7 nM.

“(2S)-2-{[(5Ra)-5-[3-Chloro-2-methyl-4-[2-(4-methylpiperazin-1-yl)ethoxy]phenyl]-6-(4-fluorophenyl)pyrrolo[2,1-f][1,2,4]triazin-4-yl]amino}-3-[2-(cyclopropylmethoxy)phenyl]propanoic acid [Example 6]”: the Ki is more than 12000 nM.

For the compound `Cc1c(-c2c(-c3ccc(F)cc3)cn3ncnc(N[C@@H](Cc4ccccc4OCC4CC4)C(=O)O)c23)ccc(OCCN2CCN(C)CC2)c1Cl` (atropisomer, axis not shown; (Sa)) [Example 8, (2S)-2-{[(5Sa)-5-[3-Chloro-2-methyl-4-[2-(4-methylpiperazin-1-yl)ethoxy]phenyl]-6-(4-fluorophenyl)pyrrolo[2,1-f][1,2,4]triazin-4-yl]amino}-3-[2-(cyclopropylmethoxy)phenyl]-propanoic acid], the Ki is more than 12000 nM.

With `COc1ccccc1-c1nccc(COc2ccccc2C[C@H](Nc2ncnn3cc(-c4ccc(F)cc4)c(-c4ccc(OCCN5CCN(C)CC5)c(Cl)c4C)c23)C(=O)O)n1` (racemic) [Example 11], the Ki was 382 nM.

On to `COc1ccccc1-c1nccc(COc2ccccc2C[C@H](Nc2ncnn3cc(-c4ccc(F)cc4)c(-c4ccc(OCCN5CCN(C)CC5)c(Cl)c4C)c23)C(=O)O)n1` (single isomer, unassigned) [Example 12], for which the Ki is 990 nM.

In the case of `Cc1c(-c2c(-c3ccc(F)cc3)cn3ncnc(O[C@@H](Cc4ccccc4OCC4CC4)C(=O)O)c23)ccc(OCCN2CCN(C)CC2)c1Cl` (atropisomer, axis not shown) [Example 2, (2S)-2-[(5R^a)-5-[3-Chloro-2-methyl-4-[2-(4-methylpiperazin-1-yl)ethoxyl]phenyl]-6-(4-fluoro-phenyl)pyrrolo[2,1-f][1,2,4]triazin-4-yl]oxy-3-[2-(cyclopropylmethoxy)phenyl]propanoic acid], the Ki was more than 12000 nM.

Turning to `Cc1c(-c2c(-c3ccc(F)cc3)cn3ncnc(N[C@H](Cc4ccccc4OCC4CC4)C(=O)O)c23)ccc(OCCN2CCN(C)CC2)c1Cl` (single isomer, unassigned) [Example 5], the Ki is more than 12000 nM.
